Marks after values point to notes of the source that are not given here.
Experiments:
[1] = test system: rat brain cortical neurons induced by Aβ25-35; experiment: MDA content in culture medium of neurons damaged by Aβ25-35; format: cell-based
Description: Aβ25-35 and MTT, purchased from Sigma Company; T-AOC assay kit, MDA assay kit, GSH-PX assay kit and SOD assay kit, purchased from Nanjing Jiancheng Bioengineering Institute; and cell apoptosis fluorescent Hoechst33342/PI double staining reagent kit purchased from Nanjing KeyGEN Biotech Co., Ltd. […] Other detection indexes: […] Three experiments of different samples were repeated to detect each index of this experiment (except the Hoechst/PI double staining experiment and the experiment of cell morphological observation), and all results are obtained via the results of three experiments by using statistical analysis. ROS is generated by organisms through the enzyme system and the non-enzyme system and the ROS is able to attack polyunsaturated fatty acids in biological membranes, and initiate lipid peroxidation to form lipid peroxides, such as MDA. Therefore, the amount of MDA can reflect the degree of lipid peroxidation in organisms, thereby indirectly reflecting the damage degree of cells attacked by free radicals. […] The Fx-powder can reduce the MDA content in the culture medium of the damaged neurons remarkably and is dose-dependent, and the protective effect of the Fx-powder increases with the increase of drug concentrations. The Fx-oil also has such effect to protect neurons from oxidative damage and is not evidently dose-dependent. The reference substance A presents certain protective effect at a low dose, but the effect is seemingly reversed at medium and high doses, along with an increase in the MDA content. However, there is no statistical difference compared with the model group.

[2] = test system: rat brain cortical neurons induced by Aβ25-35; experiment: Cell survival rate by MTT method in neurons damaged by Aβ25-35; format: cell-based; details: control = 100%
Description: 1) kill zero to four-day old neonatal rats, immerse the rats in 75% alcohol for 2 to 3 seconds, put the rats in a sterile culture dish, take their brains, and place the brains in a sterile culture dish containing cold D-Hanks liquid, remove meninges and blood vessels, and isolate the cerebral cortex.
2) place the isolated tissues in a sterile culture dish containing a proper amount of 0.125% trypsin solution, cutting up the tissues into a size of about 0.5 mm*0.5 mm*0.5 mm, and place them for 5 minutes at room temperature.
3) transfer the tissue blocks to a 15 ml centrifugal tube, add a proper amount of DMEM-F12 culture medium containing 10% bovine serum to terminate digestion, blow gently with a bend suction pipe to obtain a single cell suspension.
4) filter the cells with a 400-mesh cell strainer.
5) perform centrifugation at 1000 rpm for 5 minutes, discard the supernatant, add a D-Hanks liquid to wash the cells, perform centrifugation at 1000 rpm for 5 minutes and discard the supernatant.
6) add a proper amount of DMEM-F12 culture medium containing 10% bovine serum, count the cells, according to a concentration of 1*10^5 cells/ml, inoculate cells in a 96-pore plate or a 24-pore plate, which applied with 10 μg/ml of polylysine as a basic layer, place the plate in a CO2 incubator and culture at 37 °C in a CO2 concentration of 5%.
7) 24 hours later, replace the culture medium with a DMEM-F12 culture medium containing 5 mg/L cytarabine and 10% bovine serum; 24 hours later, replace the culture medium with a DMEM-F12 culture medium containing 2% B-27 and 10% bovine serum; replace the culture medium with a DMEM-F12 culture medium containing 2% B-27 and 10% bovine serum every 2 days subsequently to change the solution.
A total of 8 experiment groups are set for cell survival rate detection, including a normal control group, a model group, 5 medicament groups of different concentrations (drug concentrations (the drug concentrations described herein refer to the dry weight of fucoxanthin): 0.39, 0.78, 1.56, 3.12 and 6.25 μg/ml) and a medicament control group (6.25 μg/ml). Other detection indexes: SOD, GSH-PX, T-AOC, MDA and cell morphological observation in which 5 experimental groups are set in total, including a normal control group, a model group and 3 medicament groups of different concentrations (drug concentrations: 0.39, 0.78 and 1.56 μg/ml).
Take cells cultured for 7 days, administer corresponding concentrations of the drug to the medicament groups, add an equal amount of a corresponding solvent to the control group and the model group, incubate for 16 hours, treat groups besides the control group with 5 μM of Aβ25-35 (pre-aged for 7 days at 37□) for 24 hours, take the cell culture medium to detect the T-AOC, the SOD, the MDA and the GSH-PX subsequently, and measure the cell survival rate by MTT method or perform morphological observation with a Hoechst/PI double staining experiment.
Determination of the cell survival rate by MTT method: culture the cells in a 96-pore plate, administer the drug to protect the cells for 16 hours, after damaging the cells by Aβ25-35 for 24 hours, add 5 mg/ml of MTT to the culture medium, continue to culture for 4 hours, terminate the culture, remove the culture medium through careful suction, add 200 μl of dimethyl sulfoxide to each pore, measure the absorbance of each pore at Optical Density (OD) 490 nm with an enzyme-labeled instrument after the crystals are completely dissolved and calculate the cell survival rate by taking the control group as 100%.

[3] = test system: rat brain cortical neurons induced by Aβ25-35; experiment: SOD activity in culture medium of neurons damaged by Aβ25-35; format: cell-based
Description: Aβ25-35 and MTT, purchased from Sigma Company; T-AOC assay kit, MDA assay kit, GSH-PX assay kit and SOD assay kit, purchased from Nanjing Jiancheng Bioengineering Institute; and cell apoptosis fluorescent Hoechst33342/PI double staining reagent kit purchased from Nanjing KeyGEN Biotech Co., Ltd. […] Other detection indexes: […] Three experiments of different samples were repeated to detect each index of this experiment (except the Hoechst/PI double staining experiment and the experiment of cell morphological observation), and all results are obtained via the results of three experiments by using statistical analysis. The SOD activity can reflect ability of organisms to remove ROS indirectly. The influence of the reference substance A (A) and the coarse extracts thereof FX-01 powder (Fx-powder) and Fx-01 oil (Fx-oil) on the SOD activity in the culture medium of the rat brain cortical neuron model induced by Aβ25-35 is detected and the result is as shown in Table 2. […] The SOD activity is improved with the increase of drug concentrations.

[4] = test system: memory acquisition of mice; experiment: Step-down test, memory acquisition of mice; format: in vivo; details: 0.42 mg/kg·bw by lavage for 30 days
Protocol: (§1) 1.1 Material: pure fucoxanthin prepared by our company, and the recommended daily intake for a mouse is equal to the daily dose 4 mg of the human body, male Kuming mice, 6 to 8 weeks old, bodyweight ranging from 18 to 22 g.
(§2) 1.2 dose and group: take the daily dose, i.e. 4 mg of fucoxanthin of the human body as a dose group, turn the dose into the daily dose of the mice, and set a blank control group.
1.51 Step-down test: select 20 male mice with a bodyweight of 18 to 22 g, randomly divide the mice into a blank control group and a medication group, administer fucoxanthin to the medication group by lavage, conduct step-down training to the mice after administering the sample to the mice continuously for 30 days, put the animals in a reaction tank for adaption for 3 minutes, introduce a 36V alternating current, and the normal reaction of the animals was to jump back to the insulated platform quickly. Most of the animals might jump onto the copper grids again or jump onto the copper grids for multiple times, and jump back onto the platform after receiving electric shocks. After training once, the animals were placed on the platform in the reaction tank, record the number of electric shocks (number of errors) received by each mouse within 5 minutes as the learning performance, retest 24 hours later, and record the number of animals that received the electric shocks, the latency for the animals to step down the platform for the first time, and number of errors within 3 minutes.
(§3) 1.6 Data processing: process the obtained data by utilizing an SPSS1010 statistic software package and employ analysis of variance and X^2 test in the statistic method. […]

[5] = test system: rat brain cortical neurons induced by Aβ25-35; experiment: Neuron morphological detection by Hoechst/PI double staining; format: cell-based; details: compared with model group, FIG. 1
Protocol: The anti-AD activity of fucoxanthin is evaluated by detecting indexes including cell survival rate (MTT), cytomorphology, SOD, GSH-PX, T-AOC and MDA etc. SOD plays an important role in the balance between oxidation and anti-oxidization of organisms. The enzyme is able to remove superoxide anion free radicals and protect cells from damage, and the activity of the enzyme indirectly reflects the ability of organisms to remove ROS. GSH-PX, which is an important enzyme for catalyzing the decomposition of hydrogen peroxide in the body, is able to protect the integrity of cellular membrane structures and functions. The T-AOC can be measured to evaluate the antioxidant capacity of the total anti-oxidant substances in a system. The quantity of MDA reflects the degree of lipid peroxidation in organisms and may indirectly reflect the damage level of cells attacked by free radicals. Hoechst/Propidium Iodide (PI) double staining is applied to cell morphological observation: both PI and Hoechst33342 can bonde with cell nuclear Deoxyribonucleic Acid (DNA) (or Ribonucleic Acid (RNA)). However, PI fails to get through normal cellular membranes while Hoechst is a membrane-permeable fluorescent dye. Therefore, necrotic cells or cells whose cellular membranes are damaged during late apoptosis are stained red by PI while normal cells and cells in early apoptosis or mid-apoptosis are stained blue by Hoechst. However, nucleolus of apoptotic cell present a bright blue color due to concentration. Normal cells (blue), apoptotic cells (bright blue) and necrotic cells (red) can be distinguished according to different colors. However, the accompanying drawings in the specification are colorless, thus the colors are replaced by hollow rounds (blue), grey rounds (bright blue) and black rounds (red). […] Other detection indexes: […] […]

[6] = test system: rat brain cortical neurons induced by Aβ25-35; experiment: T-AOC in culture medium of neurons damaged by Aβ25-35; format: cell-based
Description: Aβ25-35 and MTT, purchased from Sigma Company; T-AOC assay kit, MDA assay kit, GSH-PX assay kit and SOD assay kit, purchased from Nanjing Jiancheng Bioengineering Institute; and cell apoptosis fluorescent Hoechst33342/PI double staining reagent kit purchased from Nanjing KeyGEN Biotech Co., Ltd. […] Other detection indexes: […] Three experiments of different samples were repeated to detect each index of this experiment (except the Hoechst/PI double staining experiment and the experiment of cell morphological observation), and all results are obtained via the results of three experiments by using statistical analysis. The T-AOC can be measured to evaluate the antioxidant capacity of the total antioxidant substances in the system. […] The protective effect of the Fx-powder is improved with the increase of the drug concentrations. However, A and the Fx-oil are not dose-dependent although they can improve the T-AOC.

rat embryo neuron = details: literature 2001-335480A published in Japan; cited from earlier work
[7] = test system: memory acquisition of mice; experiment: Step-through test, memory acquisition of mice; format: in vivo; details: 0.42 mg/kg·bw for 30 days
Protocol: as §1, §2
1.52 Step-through test: the selection of animals, the grouping in the test, the doses for the tested objects, the administration methods and the administration time are the same as those in the step-down test, and step-through training was conducted after administering the samples continuously for 30 days. During the experiment, make the mice face back to the entrance of a bright room and put the mice into the bright room, start a timer, the animals passed through the entrance, entered the […] and received electric shocks, stop the timer, take out the mice and record the time needed for each mouse to be put into the bright room and enter a dark room to receive the electric shocks, i.e. the latency, repeat the test 24 hours later at the same time, and record the latency for each mouse to enter the dark room, the number of errors within 5 minutes, and the number of animals that entered the dark room.
as §3

[8] = test system: rat brain cortical neurons induced by Aβ25-35; experiment: GSH-PX activity in culture medium of neurons damaged by Aβ25-35; format: cell-based
Description: Aβ25-35 and MTT, purchased from Sigma Company; T-AOC assay kit, MDA assay kit, GSH-PX assay kit and SOD assay kit, purchased from Nanjing Jiancheng Bioengineering Institute; and cell apoptosis fluorescent Hoechst33342/PI double staining reagent kit purchased from Nanjing KeyGEN Biotech Co., Ltd. […] Other detection indexes: […] Three experiments of different samples were repeated to detect each index of this experiment (except the Hoechst/PI double staining experiment and the experiment of cell morphological observation), and all results are obtained via the results of three experiments by using statistical analysis. Detect the influence of the reference substance A (A) and the coarse extracts thereof FX-01 powder (Fx-powder) and Fx-01 oil (Fx-oil) on the GSH-PX activity in the culture medium of the rat brain cortical neuron model induced by Aβ25-35, and the result is as shown in Table 3.

CC(=O)O[C@H]1CC(C)(C)C(=C=C/C(C)=C/C=C/C(C)=C/C=C/C=C(C)/C=C/C=C(\C)C(=O)C[C@@]23O[C@]2(C)C[C@@H](O)CC3(C)C)[C@](C)(O)C1 [A, fucoxanthin]
MDA ([1]; 0.39 μg/ml): 5.12 ± 1.17 µmol/mL
MDA ([1]; 0.78 μg/ml): 14.62 ± 3.82 µmol/mL
MDA ([1]; 1.56 μg/ml): 12.34 ± 1.58 µmol/mL
Cell survival rate (%) ([2]; 0.39 μg/ml, drug 16 h then 5 μM Aβ25-35 24 h): 98.45 ± 15.89 %
Cell survival rate (%) ([2]; 0.78 μg/ml, drug 16 h then 5 μM Aβ25-35 24 h): 92.36 ± 17.79%
Cell survival rate (%) ([2]; 1.56 μg/ml, drug 16 h then 5 μM Aβ25-35 24 h): 98.99 ± 9.52 %
Cell survival rate (%) ([2]; 3.12 μg/ml, drug 16 h then 5 μM Aβ25-35 24 h): 100.98 ± 8.74 %
Cell survival rate (%) ([2]; 6.25 μg/ml, drug 16 h then 5 μM Aβ25-35 24 h): 103.31 ± 11.93 %
Cell survival rate (%) ([2]; medicament control group (6.25 μg/ml)): 104.47 ± 20.70%
SOD (U/ml) ([3]; 0.39 μg/ml): 15.38 ± 0.71 U/ml
SOD (U/ml) ([3]; 0.78 μg/ml): 15.72 ± 0.87 U/ml
SOD (U/ml) ([3]; 1.56 μg/ml): 15.77 ± 0.83 U/ml
Error response rate (%) Training [4]: 100%
Error response rate (%) Test ([4]; retest 24 h later): 50%
Latency Test ([4]; retest 24 h later): 136.2 ± 25.6 s
Number of errors Test ([4]; retest 24 h later, within 3 minutes): 0.3 ± 0.31
Number of errors Training ([4]; within 5 minutes): 1.1 ± 0.56
Morphological detection: apoptotic and necrotic cells ([5]; 0.39 μg/ml): slight decrease in the necrotic cells
Morphological detection: apoptotic and necrotic cells ([5]; 0.78 μg/ml): The apoptotic cells and the necrotic cells decrease
Morphological detection: apoptotic and necrotic cells ([5]; 1.56 μg/ml): The apoptotic cells and the necrotic cells decrease
T-AOC (U/ml) ([6]; 0.39 μg/ml): 1.50 ± 0.54 U/ml
T-AOC (U/ml) ([6]; 0.78 μg/ml): 1.26 ± 0.37 U/ml
T-AOC (U/ml) ([6]; 1.56 μg/ml): 1.12 ± 0.13 U/ml
Effect on rat embryo neuron injuries caused by cerebral ischemia-reperfusion (rat embryo neuron): can inhibit rat embryo neuron injuries caused by cerebral ischemia-reperfusion
Error response rate (%) [7]: 50** %
Latency (seconds) Training [7]: 40.2 ± 6.5 s
Latency (seconds) Test ([7]; test 24 h later): 240.4 ± 43.2 s
Number of errors Test ([7]; within 5 minutes): 0.4 ± 0.3
GSH-PX (U/ml) ([8]; 0.39 μg/ml): 38.17 ± 6.84 U/ml
GSH-PX (U/ml) ([8]; 0.78 μg/ml): 61.50 ± 51.62 U/ml
GSH-PX (U/ml) ([8]; 1.56 μg/ml): 34.00 ± 5.29 U/ml
